The record followed here is patent US10030020B2, “Spirocycle compounds and methods of making and using same” (Abide Therapeutics, Inc., priority 2016, dated 2018).

Usually IC50 stands for the concentration that inhibits the measured activity by half. Lower therefore signals higher potency.

Assay [1] concerns the target T1, ABHD6 (Mus musculus (Mouse), UniProt Q8R2Y0). The assay can be described thus: In vitro competitive activity-based protein profiling (mouse brain membrane fraction or cell lysates), ABHD6 band. Format: biochemical. The note with it: mouse proteome; for inhibition at 1 µM: read-out: ABHD6 % Inh 1 μM (mouse); for IC50: competitive ABPP. The procedure, abridged:
(§1)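 Competitive ABPP: proteome 1.0 mg/mL protein + inhibitor, 30 min, 37° C; FP-Rh probe (stock 50 μM in DMSO) added, 30 min, 37° C; SDS quench, SDS-PAGE, fluorescent band intensity read.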

The target in assay [2] is T2, FAAH (Mus musculus (Mouse), UniProt O08914). Kind of assay: Mouse brain proteomes from inhibitor treated mice (oral gavage, sacrificed 4 h after administration, ABPP analysis), FAAH. Format: in vivo, mouse (C57Bl/6J). The note with it: 5 mg/kg oral gavage. A digest of the protocol: (§2)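 Percent inhibition in brain tissue measured by ABPP 4 h after a single oral gavage dose (5 mg/kg) to wild-type C57Bl/6J mice; vehicle was, for example, PEG400/Ethanol/PBS at 7/2/1.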

In assay [3] the target is T3, MAGL (Mus musculus (Mouse), UniProt O35678). Kind of assay: Mouse brain proteomes from inhibitor treated mice (oral gavage, sacrificed 4 h after administration, ABPP analysis). The note with it: 5 mg/kg oral gavage. Type of assay: in vivo, mouse (C57Bl/6J). The procedure, abridged: as §2
In assay [4] the target is T1, ABHD6. Kind of assay: Mouse brain proteomes from inhibitor treated mice (oral gavage, sacrificed 4 h after administration, ABPP analysis), ABHD6. Format: in vivo, mouse (C57Bl/6J). As to conditions: 5 mg/kg oral gavage. A digest of the protocol:
as §2

Assay [5] has as its target T2, FAAH. The assay can be described thus: In vitro competitive activity-based protein profiling (mouse brain membrane fraction or cell lysates), FAAH band. Format: biochemical. The note with it: mouse proteome; for inhibition at 1 µM: read-out: FAAH % Inh 1 μM (mouse); for IC50: competitive ABPP. The procedure, abridged: as §1
Assay [6] addresses T3, MAGL. Kind of assay: In vitro competitive activity-based protein profiling (mouse brain membrane fraction or cell lysates), MAGL band. Format: biochemical. The note with it: mouse proteome; for inhibition at 1 µM: read-out: MAGL % Inh 1 μM (mouse); for IC50: competitive ABPP. How it is done: In Vitro Competitive Activity-Based Protein Profiling.
Proteomes (mouse brain membrane fraction or cell lysates) (50 μL, 1.0 mg/mL total protein concentration) were preincubated with varying concentrations of inhibitors at 37° C. After 30 min, FP—Rh (1.0 μL, 50 μM in DMSO) was added and the mixture was incubated for another 30 min at 37° C. Reactions were quenched with SDS loading buffer (50 μL-4×) and run on SDS-PAGE.

T3 sequence (O35678 whole entry): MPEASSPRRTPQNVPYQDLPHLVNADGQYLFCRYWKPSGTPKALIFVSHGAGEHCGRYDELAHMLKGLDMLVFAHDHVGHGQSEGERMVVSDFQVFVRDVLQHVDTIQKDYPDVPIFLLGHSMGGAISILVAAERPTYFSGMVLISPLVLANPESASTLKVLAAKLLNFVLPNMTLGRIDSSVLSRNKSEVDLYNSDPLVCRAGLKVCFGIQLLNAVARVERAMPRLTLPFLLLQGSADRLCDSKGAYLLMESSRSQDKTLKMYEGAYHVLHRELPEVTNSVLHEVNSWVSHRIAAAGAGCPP
T2 sequence (O08914 whole entry): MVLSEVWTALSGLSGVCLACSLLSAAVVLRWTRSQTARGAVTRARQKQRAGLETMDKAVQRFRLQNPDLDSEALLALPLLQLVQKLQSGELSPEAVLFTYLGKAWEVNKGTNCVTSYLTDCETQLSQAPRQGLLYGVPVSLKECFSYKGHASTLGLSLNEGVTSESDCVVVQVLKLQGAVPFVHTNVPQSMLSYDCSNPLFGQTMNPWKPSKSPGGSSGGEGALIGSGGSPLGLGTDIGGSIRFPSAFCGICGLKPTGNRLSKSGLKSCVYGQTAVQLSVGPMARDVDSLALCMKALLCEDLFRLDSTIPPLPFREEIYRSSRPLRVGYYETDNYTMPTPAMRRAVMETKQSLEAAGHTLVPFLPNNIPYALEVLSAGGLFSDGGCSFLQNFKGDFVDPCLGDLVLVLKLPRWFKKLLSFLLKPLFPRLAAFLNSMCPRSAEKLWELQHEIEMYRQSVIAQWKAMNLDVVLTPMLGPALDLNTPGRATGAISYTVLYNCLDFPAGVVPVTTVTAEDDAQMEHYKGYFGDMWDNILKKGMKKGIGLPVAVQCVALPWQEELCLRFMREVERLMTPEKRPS
T1 sequence (Q8R2Y0 whole entry): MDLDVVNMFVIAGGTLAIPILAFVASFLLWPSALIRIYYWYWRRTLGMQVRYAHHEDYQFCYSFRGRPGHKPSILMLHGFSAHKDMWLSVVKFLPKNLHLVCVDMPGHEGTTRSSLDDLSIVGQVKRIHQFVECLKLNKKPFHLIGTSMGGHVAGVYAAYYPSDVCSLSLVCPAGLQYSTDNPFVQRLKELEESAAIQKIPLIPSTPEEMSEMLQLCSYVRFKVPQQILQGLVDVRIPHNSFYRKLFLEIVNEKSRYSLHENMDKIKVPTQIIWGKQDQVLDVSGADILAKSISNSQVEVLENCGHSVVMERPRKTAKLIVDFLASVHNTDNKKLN

Consider `O=C(OC(C(F)(F)F)C(F)(F)F)N1CCC2(CCCN2Cc2cc(N3CCS(=O)(=O)CC3)cc(C(F)(F)F)c2)CC1` [Example 42, 1,1,1,3,3,3-Hexafluoropropan-2-yl 1-(3-(1,1-dioxidothiomorpholino)-5-(trifluoromethyl)benzyl)-1,8-diazaspiro[4.5]decane-8-carboxylate], for which the results for the inhibition at 1 µM in assay [1], in assay [5] and in assay [6] were under 25%, under 25% and over 75%, respectively. Further, the values for the IC50 in assay [1], in assay [5] and in assay [6] were over 1 µM, over 1 µM and under 0.1 µM, respectively. The “FAAH % Inh 5 mg/kg (mouse)” value in assay [2] is listed as “# (# is <25%)”. Also, in assay [3], the “MAGL % Inh 5 mg/kg (mouse)” value is “### (### is ≥75%)”. Also, in assay [4], the “ABHD6 % Inh 5 mg/kg (mouse)” value is listed as “# (# is <25%)”.

Turning to `CS(=O)(=O)N1CCN(c2cc(CN3CCCC34CCN(C(=O)OC(C(F)(F)F)C(F)(F)F)CC4)cc(C(F)(F)F)c2)CC1` [Example 43, 1,1,1,3,3,3-Hexafluoropropan-2-yl 1-(3-(4-(methylsulfonyl)piperazin-1-yl)-5-(trifluoromethyl)benzyl)-1,8-diazaspiro[4.5]decane-8-carboxylate], the values for the inhibition at 1 µM in assay [1], in assay [5] and in assay [6] were under 25%, under 25% and over 75%, respectively. In addition, the concentration for half-maximal inhibition (IC50) in assay [1] was over 1 µM; in assay [5], over 1 µM; in assay [6], under 0.1 µM. Moreover, in assay [2], the “FAAH % Inh 5 mg/kg (mouse)” value was “# (# is <25%)”. For the same compound, in assay [3], the “MAGL % Inh 5 mg/kg (mouse)” value is recorded as “## (## is equal to or greater than 25% but less than 75%)”. Besides, the “ABHD6 % Inh 5 mg/kg (mouse)” value in assay [4] is recorded as “# (# is <25%)”.

`O=C(OC(C(F)(F)F)C(F)(F)F)N1CCC2(CCCN2Cc2cc(N3CCC(F)CC3)cc(C(F)(F)F)c2)CC1` [Example 45, 1,1,1,3,3,3-Hexafluoropropan-2-yl 1-(3-(4-fluoropiperidin-1-yl)-5-(trifluoromethyl)benzyl)-1,8-diazaspiro[4.5]decane-8-carboxylate]: the 50% inhibitory concentration (IC50) in assay [1] was over 1 µM; in assay [5], over 1 µM; in assay [6], under 0.1 µM. Besides, in assay [2], the “FAAH % Inh 5 mg/kg (mouse)” value is “# (# is <25%)”. The “MAGL % Inh 5 mg/kg (mouse)” value in assay [3] was “## (## is equal to or greater than 25% but less than 75%)”. For the same compound, in assay [4], the “ABHD6 % Inh 5 mg/kg (mouse)” value is “# (# is <25%)”.

For `O=C(OC(C(F)(F)F)C(F)(F)F)N1CCC2(CCCN2Cc2cc(N3CC4COCC4C3)cc(C(F)(F)F)c2)CC1` (stereo not drawn) [Example 46, 1,1,1,3,3,3-Hexafluoropropan-2-yl 1-(3-(tetrahydro-1H-furo[3,4-c]pyrrol-5(3H)-yl)-5-(trifluoromethyl)benzyl)-1,8-diazaspiro[4.5]decane-8-carboxylate], the IC50 in assay [1] was over 1 µM; in assay [5] it was over 1 µM; in assay [6], under 0.1 µM. Further, the “FAAH % Inh 5 mg/kg (mouse)” value in assay [2] was “# (# is <25%)”. The “MAGL % Inh 5 mg/kg (mouse)” value in assay [3] is on record as “### (### is ≥75%)”. The “ABHD6 % Inh 5 mg/kg (mouse)” value in assay [4] is reported as “# (# is <25%)”.

For `O=C(OC(C(F)(F)F)C(F)(F)F)N1CCC2(CCCN2Cc2cc(N3CCC3)cc(C(F)(F)F)c2)CC1` [Example 47, 1,1,1,3,3,3-Hexafluoropropan-2-yl 1-(3-(azetidin-1-yl)-5-(trifluoromethyl)benzyl)-1,8-diazaspiro[4.5]decane-8-carboxylate], the inhibition at 1 µM in assay [1] is under 25%; in assay [5] it was under 25%; in assay [6], over 75%. Also, the IC50 in assay [1] is over 1 µM; in assay [5], over 1 µM; in assay [6] it was under 0.1 µM. In assay [2], the “FAAH % Inh 5 mg/kg (mouse)” value is listed as “# (# is <25%)”. Moreover, in assay [3], the “MAGL % Inh 5 mg/kg (mouse)” value was “### (### is ≥75%)”. Further, the “ABHD6 % Inh 5 mg/kg (mouse)” value in assay [4] is “# (# is <25%)”.

Turning to `CC1(C)CC2(CCN(C(=O)OC(C(F)(F)F)C(F)(F)F)CC2)CN1Cc1ccc(Cl)cc1` [Example 48, 1,1,1,3,3,3-Hexafluoropropan-2-yl 2-(4-chlorobenzyl)-3,3-dimethyl-2,8-diazaspiro[4.5]decane-8-carboxylate], the inhibition at 1 µM in assay [1] is at least 75%; in assay [5] it was under 25%; in assay [6], over 75%. For the same compound, the figures for the concentration for half-maximal inhibition (IC50) in assay [1], in assay [5] and in assay [6] were 0.1 to 1 µM, over 1 µM and under 0.1 µM, respectively. In addition, in assay [2], the “FAAH % Inh 5 mg/kg (mouse)” value is “# (# is <25%)”. In assay [3], the “MAGL % Inh 5 mg/kg (mouse)” value is on record as “### (### is ≥75%)”. Also, the “ABHD6 % Inh 5 mg/kg (mouse)” value in assay [4] is listed as “## (## is equal to or greater than 25% but less than 75%)”.

As to `CC1(C)CC2(CCN(C(=O)OC(C(F)(F)F)C(F)(F)F)CC2)CN1Cc1ccc(Cl)cc1N1CCOCC1` [Example 50, 1,1,1,3,3,3-Hexafluoropropan-2-yl 2-(4-chloro-2-morpholinobenzyl)-3,3-dimethyl-2,8-diazaspiro[4.5]decane-8-carboxylate], the results for the inhibition at 1 µM in assay [1], in assay [5] and in assay [6] were 25 to 75%, under 25% and over 75%, respectively. Besides, the IC50 in assay [1] is over 1 µM; in assay [5], over 1 µM; in assay [6] it was under 0.1 µM. Besides, the “FAAH % Inh 5 mg/kg (mouse)” value in assay [2] is reported as “# (# is <25%)”. Further, the “MAGL % Inh 5 mg/kg (mouse)” value in assay [3] is given as “## (## is equal to or greater than 25% but less than 75%)”. In addition, the “ABHD6 % Inh 5 mg/kg (mouse)” value in assay [4] was “# (# is <25%)”.

With `CC1(C)CC2(CCN(C(=O)OC(C(F)(F)F)C(F)(F)F)CC2)CN1Cc1ccc(C(F)(F)F)cc1N1CCOCC1` [Example 51, 1,1,1,3,3,3-Hexafluoropropan-2-yl 3,3-dimethyl-2-(2-morpholino-4-(trifluoromethyl)benzyl)-2,8-diazaspiro[4.5]decane-8-carboxylate], the inhibition at 1 µM in assay [1] is under 25%; in assay [5] it was under 25%; in assay [6] it was over 75%. Further, the values for the half-maximal inhibitory concentration (IC50) in assay [1], in assay [5] and in assay [6] were over 1 µM, over 1 µM and under 0.1 µM, respectively. The “FAAH % Inh 5 mg/kg (mouse)” value in assay [2] was “# (# is <25%)”. In assay [3], the “MAGL % Inh 5 mg/kg (mouse)” value is on record as “## (## is equal to or greater than 25% but less than 75%)”. Also, the “ABHD6 % Inh 5 mg/kg (mouse)” value in assay [4] was “# (# is <25%)”.

For `CC1(C)CC2(CCN(C(=O)OC(C(F)(F)F)C(F)(F)F)CC2)CN1Cc1ccc(C(F)(F)F)cc1N1CCC2(CCOCC2)C1` [Example 52, 1,1,1,3,3,3-Hexafluoropropan-2-yl 2-(2-(8-oxa-2-azaspiro[4.5]decan-2-yl)-4-(trifluoromethyl)benzyl)-3,3-dimethyl-2,8-diazaspiro[4.5]decane-8-carboxylate], the inhibition at 1 µM in assay [1] is under 25%; in assay [5], under 25%; in assay [6], over 75%. Moreover, the results for the half-maximal inhibitory concentration (IC50) in assay [1], in assay [5] and in assay [6] were over 1 µM, over 1 µM and under 0.1 µM, respectively. Also, the “FAAH % Inh 5 mg/kg (mouse)” value in assay [2] is “# (# is <25%)”. The “MAGL % Inh 5 mg/kg (mouse)” value in assay [3] was “# (# is <25%)”. In addition, the “ABHD6 % Inh 5 mg/kg (mouse)” value in assay [4] is on record as “# (# is <25%)”.

With `CC1(C)CC2(CCN(C(=O)OC(C(F)(F)F)C(F)(F)F)CC2)CN1Cc1cccc(Cl)c1N1CCOCC1` [Example 54, 1,1,1,3,3,3-Hexafluoropropan-2-yl 2-(3-chloro-2-morpholinobenzyl)-3,3-dimethyl-2,8-diazaspiro[4.5]decane-8-carboxylate], the results for the inhibition at 1 µM in assay [1], in assay [5] and in assay [6] were under 25%, under 25% and over 75%, respectively. Further, the IC50 in assay [1] is over 1 µM; in assay [5], over 1 µM; in assay [6], under 0.1 µM. The “FAAH % Inh 5 mg/kg (mouse)” value in assay [2] is “# (# is <25%)”. In addition, the “MAGL % Inh 5 mg/kg (mouse)” value in assay [3] is reported as “## (## is equal to or greater than 25% but less than 75%)”. Moreover, in assay [4], the “ABHD6 % Inh 5 mg/kg (mouse)” value is listed as “# (# is <25%)”.

For the compound `O=C(OC(C(F)(F)F)C(F)(F)F)N1CCC2(CCCN2Cc2ccccc2Cl)CC1` [Example 60, 1,1,1,3,3,3-Hexafluoropropan-2-yl 1-(2-chlorobenzyl)-1,8-diazaspiro[4.5]decane-8-carboxylate], the inhibition at 1 µM in assay [1] was under 25%; in assay [5], under 25%; in assay [6], over 75%. The IC50 in assay [1] is over 1 µM; in assay [5], over 1 µM; in assay [6], under 0.1 µM. Moreover, in assay [2], the “FAAH % Inh 5 mg/kg (mouse)” value is recorded as “## (## is equal to or greater than 25% but less than 75%)”. In addition, in assay [3], the “MAGL % Inh 5 mg/kg (mouse)” value was “### (### is ≥75%)”. Further, the “ABHD6 % Inh 5 mg/kg (mouse)” value in assay [4] is recorded as “# (# is <25%)”.

Take `O=C(OC(C(F)(F)F)C(F)(F)F)N1CCC2(CCCN2Cc2cccc(Cl)c2)CC1` [Example 61, 1,1,1,3,3,3-Hexafluoropropan-2-yl 1-(3-chlorobenzyl)-1,8-diazaspiro[4.5]decane-8-carboxylate]: the inhibition at 1 µM in assay [1] was 25 to 75%; in assay [5], 25 to 75%; in assay [6], over 75%. The IC50 in assay [1] was over 1 µM; in assay [5], over 1 µM; in assay [6], under 0.1 µM. The “FAAH % Inh 5 mg/kg (mouse)” value in assay [2] was “### (### is ≥75%)”. In assay [3], the “MAGL % Inh 5 mg/kg (mouse)” value is recorded as “### (### is ≥75%)”. In assay [4], the “ABHD6 % Inh 5 mg/kg (mouse)” value is “# (# is <25%)”.
